# In patent US20240350467A1, “[6R]-MTHF IN B6 ENHANCED 5-FU BASED CHEMOTHERAPY OF PANCREATIC CANCER” (Isofol Medical AB, priority 2023, published 2024):
# Where two headings read alike, the source gives them in different places.
# How the values were obtained:
# [1] = Stability of [6R]-5,10-MTHF forms; format: physicochemical
# Source text: Arfolitixorin (former Modufolin®) is a folate-based biomodulator developed by applicant to improve the outcome of a range of antimetabolite treatments used within oncology. One of the therapeutic areas of specific interest included in the development program of arfolitixorin is as biomodulator of 5-fluorouracil (5-FU) activity in standard treatment regime for advanced, metastatic CRC, such as Stage IV. A stable lyophilizate formulation of the naturally occurring diastereoisomeric folate [6R]-5,10-MTHF has successfully been made from the drug substance arfolitixorin hemisulfate. […] As mentioned in the background section of the present application, [6R]-5,10-methylenetetrahydrofolate, abbreviated herein as [6R]-5,10-MTHF, needs to be metabolically formed when using the widely used folate-based drugs leucovorin and levoleucovorin.
# [2] = [6R]-MTHF levels after arfolitixorin versus comparable leucovorin treatment; format: in vivo
# Source text: Leucovorin and l-leucovorin, both currently approved for treatment of gastrointestinal and other cancers, need to be metabolically activated to [6R]-MTHF to potentiate the effect of 5-FU. This dependency on cellular activation provides a hurdle for reaching sufficient levels of the active [6R]-MTHF. […] Secondly, the enzymatic activation is genetically regulated^16,18, and is therefore associated with variability between individuals and conditions. Arfolitoxirin is believed to be efficacious in a larger proportion of patients with less inter- and intra-individual variability. These differences may potentially turn out to be of significant importance for increased clinical efficacy in 5-FU based cancer treatment.
# [3] = cited from earlier work
# [4] = cited from earlier work; remark: listed apart in the source
# [5] = in vitro; cited from earlier work
# [6] = test system: metastatic pancreatic cancer; settings: standard first-line treatment until 2011; cited from earlier work
# [7] = test system: metastatic pancreatic cancer; settings: PRODIGE 4, 342 patients enrolled; cited from earlier work
# [8] = test system: metastatic pancreatic cancer; settings: MPACT study; cited from earlier work
# [9] = in vivo; cited from earlier work
compound,measurement,setting,value
"Nc1nc2c(c(=O)[nH]1)N1CN(c3ccc(C(=O)N[C@@H](CCC(=O)O)C(=O)O)cc3)C[C@H]1CN2 [Arfolitixorin, [6R]-5,10-methylenetetrahydrofolate]",stability,[1],very unstable
same,[6R]-MTHF levels relative to comparable treatment with leucovorin,[2],3-4 times
Cc1ncc(CO)c(CO)c1O.Cl [Pyridoxine hydrochloride],solubility in water,[3],One gram dissolves in 5 mL of water
same,stability in air,[4]; air,stable in air
same,stability to sunlight,[4]; sunlight,slowly affected by sunlight
"Nc1nc(=O)c2c([nH]1)NC[C@H](CNc1ccc(C(=O)N[C@@H](CCC(=O)O)C(=O)O)cc1)N2C=O [l-LV, [6S]-5-formyl-THF]",conversion to methyl-tetrahydrofolate form,[5],rapidly converted
Nc1ccn([C@@H]2O[C@H](CO)[C@@H](O)C2(F)F)c(=O)n1 [gemcitabine],median overall survival (mOS),[6],about 6 months
same,median overall survival (mOS),[7],6.8 months
same,objective response rate (ORR),[7],9.4%
same,ORR,[8],7%
same,mOS,[8],6.7 months
Nc1nc2c(c(=O)[nH]1)N(C=O)[C@H](CNc1ccc(C(=O)N[C@@H](CCC(=O)O)C(=O)O)cc1)CN2 [d-LV],excretion by the kidneys,[9],slowly excreted
FOLFIRINOX,median overall survival (mOS),[7],11.1 months
same,objective response rate (ORR),[7],31.6%
Nc1nc2c(c(=O)[nH]1)N1CN(c3ccc(C(=O)N[C@@H](CCC(=O)O)C(=O)O)cc3)C[C@H]1CN2.Nc1nc2c(c(=O)[nH]1)N1CN(c3ccc(C(=O)N[C@@H](CCC(=O)O)C(=O)O)cc3)C[C@H]1CN2.O=S(=O)(O)O [arfolitixorin hemisulfate],stability,[1],unexpectedly stable salt
